From US20100003191A1, “AURONE DERIVATIVE-CONTAINING COMPOSITION FOR DIAGNOSIS” (NAGASAKI UNIVERSITY, priority 2006, published 2010)

Tests used:
Aβ(1-42) aggregate = target: T1, Aβ(1-42) aggregate (Homo sapiens, UniProt P05067); experiment: In vitro binding experiment of [125I]-labeled aurone derivatives using Aβ(1-42) aggregates; settings: [125I]-labeled compounds, Ab(1-42) aggregates; for intensity of the binding property to Ab aggregates (order): radioactivity remaining on filter, FIG. 4
T1 construct: Amyloid (3 protein (Human, 1-42) [TFA form] was purchased from Peptide Institute, Inc); purchased Peptide Institute, Inc
Procedure: Aβ aggregates were prepared by dissolving in a buffer containing 10 mM sodium phosphate and 1 mM EDTA (pH 7.4) at a concentration of 0.5 mg/mL and incubating at 37° C. for 42 h. The binding experiment was performed using 12×75 mm borosilicate glass tubes. [^125I]IMPY used for comparison was prepared according to the method described previously (Zhuang Z P, Kung M P, Wilson A, Lee C W, Plossi K, Hou C, Holzman D M, Kung H F. Structure-activity relationship of imidazo[1,2-a]pyridines as ligands for detecting β-amyloid plaques in the brain. J. Med. Chem. 2003, 46(2): 237-43). 900 μL of 10% ethanol solution, 50 μL of [^125I]-labeled aurone derivative with various concentrations (in 10% aqueous ethanol) or 50 μL of [^125I]IMPY, and 50 μL (29 nM) of an Aβ(1-42) aggregate solution were mixed, and the mixture was allowed to stand at room temperature for 3 h. Aβ3 aggregate-bound aurone derivative and nonbound aurone derivative were separated with a Brandel M-24R cell harvester using Whatman GF/B filters. The radioactivities of substances remaining on the filter used for filtration were measured with a γ counter.
FIGS. 4 and 5 show the results of experiments in which aurone derivatives were reacted in the presence and absence of Ab aggregates; the reaction mixture was filtered with a cell harvester; and the remaining radioactivity on the filter was measured. […] The intensity of the binding property increased in the following order: [^125I] Compound 7>[^125I] Compound 12=[^125I] IMPY>[^125I] Compound 14=[^125I] Compound 17>[^125I] Compound 20 (FIG. 4). The binding property to Ab aggregates of those compounds with —NH2, OMe- and OH group in their side chains are lower than the binding property of [^125] IMPY. On the other hand, those compounds with NHMe- and NMe2 group show equal or higher binding property to Ab aggregates compared to the binding property of [^125I] IMPY. […] Among all, the binding of Compound 7 to Ab aggregates was equal or more than the binding of [^125I] IMPY which is clinically tested at present. Therefore, it has become clear that this compound satisfies a critical requirement as an imaging probe for amyloid β.

[1] = male, ddY, mouse, in vivo, 2 min
Procedure: Animals were decapitated at 2, 10, 30 or 60 min after the injection, and the blood was collected. Then, major organs were removed, and weights and radioactivities thereof were measured.
In vivo radioactivity distribution experiments of ^125I-labeled aurone derivatives were performed using 5-week-old normal mice.

[2] = system: senile plaques on brain sections from Tg2576 mice; experiment: Fluorescence staining and immunostaining on brain sections from transgenic mice; assay type: binding; settings: Tg2576 mouse brain sections, FIG. 9
Procedure: As Alzheimer's disease model mouse, Tg2576 mice (20-month-old) were used. Brain tissues were removed and frozen in carboxymethyl cellulose (4%). Then, a series of sections 10 μm thick were prepared therefrom. The thus prepared sections were reacted with a ligand (a solution of Compound 26 and thioflavin in 50% EtOH) for 3 min. Then, the sections were washed with 50% EtOH (1 min×twice) and observed under a fluorescence microscope. Further, using adjacent sections, immunostaining was performed by conventional methods with anti-amyloid (3(1-42) antibody.
Fluorescence staining was performed on brain sections from Alzheimer's disease model mouse (Tg2576) utilizing the fluorescence property of Compound 26 (FIG. 9).

Ab(1-42) aggregates = target: T2, Ab(1-42) aggregates (Homo sapiens, UniProt P05067); experiment: Binding inhibition experiment using Ab(1-42) aggregates, inhibition constants (Ki), radioligand [125I](Z)-2-(4-aminobenzylidene)-5-iodobenzofuran-3(2H)-one (Table 14); settings: Aβ42 aggregates
T2 construct: Ab(1-42) was dissolved in 10 mM phosphate buffer containing 1 mM EDTA (pH 7.4)
Procedure: Ab(1-42) was dissolved in 10 mM phosphate buffer containing 1 mM EDTA (pH 7.4) to give a concentration of 0.25 mg/mL, and the mixture was incubated at 37° C. for 42 h to thereby prepare Ab(1-42) aggregates.
[…] of 10% EtOH solution, […] of a solution of [^125I](Z)-2-(4-aminobenzylidene)-5-iodobenzofuran-3(2H)-one in 10% ethanol, and […] of a sample solution at various concentrations ([…]) were mixed. Finally, […] of Ab(1-42) aggregate solution was added thereto, and the mixture was allowed to stand at room temperature for 3 h. Ab(1-42) aggregate-bound compounds and nonbound compounds were separated with a Brandel M-24R cell harvester using a Whatman GF/B filter. Radioactivities remaining on the filter were measured with a γ-counter, and inhibition curves were created using Graph Pad Prism 4.0 to calculate inhibition constants (Ki values).
In order to calculate inhibition constants (Ki values) for various aurone derivatives synthesized, binding inhibition experiments were performed using [^125I](Z)-2-(4-aminobenzylidene)-5-iodobenzofuran-3(2H)-one as a radioactive ligand. […] Thus, aurone derivatives have shown a high binding property to amyloid aggregates. No difference in binding property resulting from the length of introduced ethyleneoxy chains was observed.

[3] = system: senile plaque amyloid on hippocampal sections from Alzheimer's disease patients; experiment: In vitro autoradiography and immunostaining on brain sections from Alzheimer's disease patients (Example 2); assay type: binding, human; settings: AD patient brain sections, FIG. 10
Procedure: Hippocampal sections (5 μm thick) from Altzheimer's disease patients were dewaxed by washing with xylene ((5 min×2) and with 100% EtOH, 100% EtOH, 95% EtOH, 85% EtOH and 70% EtOH (1 min×1 for each). After air-drying, the sections were reacted with a ligand (40% EtOH solution) for 1 h. Then, the sections were washed with saturated aqueous lithium carbonate solution in 40% EtOH (2 min×2), with 40% EtOH (2 min×2) and with water (30 sec×1), and immobilized on imaging plates for 24 h. Subsequently, the sections were analyzed with BAS2500. Further, using adjacent sections, immunostaining was performed by conventional methods with anti-amyloid β(1-42) antibody.
Autoradiography was performed on brain sections from Altzheimer's disease patients with [^125I]26 (FIG. 10).

T1 sequence (P05067 672-713 limits assumed): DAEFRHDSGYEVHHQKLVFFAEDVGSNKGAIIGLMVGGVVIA
T2 sequence (P05067 672-713 limits assumed): as above

| intensity of the binding property to Ab aggregates (order) (Aβ(1-42) aggregate) | migration of radioactivity to the brain [1] | Ki (Ab(1-42) aggregates) [nM] | Compound | also measured |
| --- | --- | --- | --- | --- |
| [^125I] Compound 7>[^125I] Compound 12 |  |  | CN(C)c1ccc(/C=C2\Oc3ccc(I)cc3C2=O)cc1 [Compound 7, 5-iodo-4′-dimethylaminoaurone] | binding property to Ab aggregates compared with [125I]IMPY (Aβ(1-42) aggregate): equal or more than the binding of [^125I] IMPY |
| [^125I] Compound 12=[^125I] IMPY |  |  | CNc1ccc(/C=C2\Oc3ccc(I)cc3C2=O)cc1 [Compound 12, 5-iodo-4′-methylaminoaurone] |  |
| [^125I] Compound 14=[^125I] Compound 17 |  |  | Nc1ccc(/C=C2\Oc3ccc(I)cc3C2=O)cc1 [Compound 14, 5-iodo-4′-aminoauron] |  |
| [^125I] Compound 17>[^125I] Compound 20 |  |  | COc1ccc(/C=C2\Oc3ccc(I)cc3C2=O)cc1 [Compound 17, 5-iodo-4′-methoxyaurone] |  |
| >[^125I] Compound 20 |  |  | O=C1/C(=C/c2ccc(O)cc2)Oc2ccc(I)cc21 [Compound 20, 5-iodo-4′-hydroxyaurone] |  |
|  | 2.4-4.5 % ID/g | 1.05 ± 0.06 | O=C1/C(=C/c2ccc(OCCO)cc2)Oc2ccc(I)cc21 [Compound 26, (Z)-2-(4-(2-hydroxyethoxy)benzylidene)-5-iodobenzofuran-3(2H)-one] | fluorescence image on brain sections [2]: consistent with the fluorescence image of thioflavin S on adjacent section and the immunostaining image of anti-amyloid antibody on adjacent section; radioactivity in autoradiography vs immunostaining [3]: observed at the positive site of immunostaining with anti-amyloid antibody |
|  | 2.4-4.5 % ID/g | 3.36 ± 0.29 | O=C1/C(=C/c2ccc(OCCOCCO)cc2)Oc2ccc(I)cc21 [Compound 27, (Z)-2-(4-(2-(2-hydroxyethoxy)ethoxy)benzylidene)-5-iodobenzofuran-3(2H)-one] |  |
|  | 2.4-4.5 % ID/g | 2.56 ± 0.31 | O=C1/C(=C/c2ccc(OCCOCCOCCO)cc2)Oc2ccc(I)cc21 [Compound 28, (Z)-2-(4-(2-(2-(2-hydroxyethoxy)ethoxy)ethoxy)benzylidene)-5-iodobenzofuran-3(2H)-one] |  |

| Compound | intensity of the binding property to Ab aggregates (order) (Aβ(1-42) aggregate) | migration of radioactivity to the brain [1] | Ki (Ab(1-42) aggregates) [nM] | also measured |
| --- | --- | --- | --- | --- |
| CN(C)c1ccc(-c2cn3cc([125I])ccc3n2)cc1 [[^125I] IMPY, reference compound] | [^125I] IMPY>[^125I] Compound 14 |  |  |  |
